Earlier results as cited in patent US9950044B2, “Treatment of pulmonary vascular remodeling with neprilysin” (THE REGENTS OF THE UNIVERSITY OF COLORADO, A BODY CORPORATE, priority 2010, dated 2018).

How the values were obtained:
human IPAH patients = conditions: cited from earlier work
NEP = conditions: exogenous VIP; cited from earlier work
[1] = test system: human PA SMCs from IPAH patients; conditions: cells from IPAH patients; cited from earlier work
VIP KO mice = conditions: IP injections every other day; cited from earlier work
[2] = human IPAH patients, inhalation

VIP: 28 amino acid peptide with a molecular weight of 3.33 kD
PaO2 (human IPAH patients; [2]): significant improvement | exercise capacity (human IPAH patients; [2]): significant improvement | untoward effects reported by subjects (human IPAH patients; human, in vivo): no untoward effects | effect on NEP enzymatic activity (NEP): did not affect | in vitro proliferation of human PA SMCs [1]: inhibited | PA medial thickening (VIP KO mice): reduced | RV hypertrophy (VIP KO mice): reduced
